Data reported in patent US10112899B2 (ViiV HEALTHCARE UK LIMITED, priority 2014, dated 2018).

System: HIV in the HTLV-1 transformed cell line MT-4
Test: organism not typed
Format: cell-based
Conditions: MT-4 cells, luciferase/cell titer glo readout after 96 hours, 10 point dose response

SMILES	IC50 (MT4, 96 h)	IC50
COc1ccc(CN2Cc3c(C)c(-c4ccc(C)cc4)c([C@H](OC(C)(C)C)C(=O)O)c(C)c3C2)cc1 [Example 19, (S)-2-(tert-butoxy)-2-(2-(4-methoxybenzyl)-4,7-dimethyl-6-(p-tolyl)isoindolin-5-yl)acetic acid]	340 nM	–
Cc1ccc(CN2Cc3c(C)c(-c4ccc(C)cc4)c([C@H](OC(C)(C)C)C(=O)O)c(C)c3C2)cc1 [Example 20, (S)-2-(tert-butoxy)-2-(4,7-dimethyl-2-(4-methylbenzyl)-6-(p-tolyl)isoindolin-5-yl)acetic acid]	115 nM	–
Cc1ccc(-c2c(C)c3c(c(C)c2[C@H](OC(C)(C)C)C(=O)O)CN(Cc2ccccc2F)C3)cc1 [Example 21, (S)-2-(tert-butoxy)-2-(2-(2-fluorobenzyl)-4,7-dimethyl-6-(p-tolyl)isoindolin-5-yl)acetic acid]	40 nM	–
Cc1ccc(-c2c(C)c3c(c(C)c2[C@H](OC(C)(C)C)C(=O)O)CN(Cc2cccc(F)c2)C3)cc1 [Example 22, (S)-2-(tert-butoxy)-2-(2-(3-fluorobenzyl)-4,7-dimethyl-6-(p-tolyl)isoindolin-5-yl)acetic acid]	20 nM	–
Cc1ccc(-c2c(C)c3c(c(C)c2[C@H](OC(C)(C)C)C(=O)O)CN(Cc2nc(C)c[nH]2)C3)cc1 [Example 23, (S)-2-(tert-butoxy)-2-(4,7-dimethyl-2-((4-methyl-1H-imidazol-2-yl)methyl)-6-(p-tolyl)isoindolin-5-yl)acetic acid]	203 nM	–
COc1cccc(CN2Cc3c(C)c(-c4ccc(C)cc4)c([C@H](OC(C)(C)C)C(=O)O)c(C)c3C2)c1 [Example 24, (S)-2-(tert-butoxy)-2-(2-(3-methoxybenzyl)-4,7-dimethyl-6-(p-tolyl)isoindolin-5-yl)acetic acid]	12 nM	–
Cc1ccc(-c2c(C)c3c(c(C)c2[C@H](OC(C)(C)C)C(=O)O)CN(CC(C)C)C3)cc1 [Example 25, (S)-2-(tert-butoxy)-2-(2-isobutyl-4,7-dimethyl-6-(p-tolyl)isoindolin-5-yl)acetic acid]	946 nM	–
Cc1ccc(-c2c(C)c3c(c(C)c2[C@H](OC(C)(C)C)C(=O)O)CN(Cc2ccc(Cl)c(Cl)c2)C3)cc1 [Example 26, (S)-2-(tert-butoxy)-2-(2-(3,4-dichlorobenzyl)-4,7-dimethyl-6-(p-tolyl)isoindolin-5-yl)acetic acid]	54 nM	–
Cc1ccc(-c2c(C)c3c(c(C)c2[C@H](OC(C)(C)C)C(=O)O)CN(Cc2ccc(C(F)(F)F)cc2)C3)cc1 [Example 27, (S)-2-(tert-butoxy)-2-(4,7-dimethyl-6-(p-tolyl)-2-(4-(trifluoromethyl)benzyl)isoindolin-5-yl)acetic acid]	932 nM	–
Cc1ccc(-c2c(C)c3c(c(C)c2[C@H](OC(C)(C)C)C(=O)O)CN(Cc2cccc(C(F)(F)F)c2)C3)cc1 [Example 28, (S)-2-(tert-butoxy)-2-(4,7-dimethyl-6-(p-tolyl)-2-(3-(trifluoromethyl)benzyl)isoindolin-5-yl)acetic acid]	94 nM	–
Cc1ccc(-c2c(C)c3c(c(C)c2[C@H](OC(C)(C)C)C(=O)O)CN(Cc2cccc(-c4ccccc4)c2)C3)cc1 [Example 29, (S)-2-(2-([1,1′-biphenyl]-3-ylmethyl)-4,7-dimethyl-6-(p-tolyl)isoindolin-5-yl)-2-(tert-butoxy)acetic acid]	184 nM	–
Cc1ccc(-c2c(C)c3c(c(C)c2[C@H](OC(C)(C)C)C(=O)O)CN(CC2CCCCC2)C3)cc1 [Example 30, (S)-2-(tert-butoxy)-2-(2-(cyclohexylmethyl)-4,7-dimethyl-6-(p-tolyl)isoindolin-5-yl)acetic acid]	47 nM	–
Cc1ccc(-c2c(C)c3c(c(C)c2[C@H](OC(C)(C)C)C(=O)O)CN(C2CCCC(c4ccccc4)C2)C3)cc1 (stereo partly drawn) [Example 31, (2S)-2-(tert-butoxy)-2-(4,7-dimethyl-2-(3-phenylcyclohexyl)-6-(p-tolyl)isoindolin-5-yl)acetic acid]	203 nM	–
Cc1ccc(-c2c(C)c3c(c(C)c2[C@H](OC(C)(C)C)C(=O)O)CN(C2CCC[C@@H](C)C2)C3)cc1 (stereo partly drawn) [Example 32, (2S)-2-(tert-butoxy)-2-(4,7-dimethyl-2-((3R)-3-methylcyclohexyl)-6-(p-tolyl)isoindolin-5-yl)acetic acid]	723 nM	–
Cc1ccc(-c2c(C)c3c(c(C)c2[C@H](OC(C)(C)C)C(=O)O)CN(C(=O)N[C@H]2CC[C@H](C)CC2)C3)cc1 [Example 33, (S)-2-(tert-butoxy)-2-(4,7-dimethyl-2-(((1r,4S)-4-methylcyclohexyl)carbamoyl)-6-(p-tolyl)isoindolin-5-yl)acetic acid]	616 nM	–
Cc1ccc(-c2c(C)c3c(c(C)c2[C@H](OC(C)(C)C)C(=O)O)CN(C(=O)NCc2ccccc2)C3)cc1 [Example 34, (S)-2-(2-(benzylcarbamoyl)-4,7-dimethyl-6-(p-tolyl)isoindolin-5-yl)-2-(tert-butoxy)acetic acid]	86 nM	–
Cc1ccc(-c2c(C)c3c(c(C)c2[C@H](OC(C)(C)C)C(=O)O)CN(C(=O)N2CCCC2)C3)cc1 [Example 35, (S)-2-(tert-butoxy)-2-(4,7-dimethyl-2-(pyrrolidine-1-carbonyl)-6-(p-tolyl)isoindolin-5-yl)acetic acid]	12 nM	–
Cc1ccc(-c2c(C)c3c(c(C)c2[C@H](OC(C)(C)C)C(=O)O)CN([C@@H]2CCC[C@@H](C)C2)C3)cc1 [Example 37, (2S)-2-(tert-butoxy)-2-{4,7-dimethyl-2-[(1R,3R)-3-methylcyclohexyl]-6-(4-methylphenyl)-2,3-dihydro-1H-isoindol-5-yl}acetic acid]	–	723 nM
Cc1ccc(-c2c(C)c3c(c(C)c2[C@H](OC(C)(C)C)C(=O)O)CN(CCCc2cccc(F)c2)C3)cc1 [Example 38, (2S)-2-(tert-butoxy)-2-{2-[3-(3-fluorophenyl)propyl]-4,7-dimethyl-6-(4-methylphenyl)-2,3-dihydro-1H-isoindol-5-yl}acetic acid]	1230 nM	–
Cc1ccc(-c2c(C)c3c(c(C)c2[C@H](OC(C)(C)C)C(=O)O)CN(CCc2ccccc2)C3)cc1 [Example 39, (2S)-2-(tert-butoxy)-2-[4,7-dimethyl-6-(4-methylphenyl)-2-(2-phenylethyl)-2,3-dihydro-1H-isoindol-5-yl]acetic acid]	872 nM	–
Cc1ccc(-c2c(C)c3c(c(C)c2[C@H](OC(C)(C)C)C(=O)O)CN(CC2CCCN2C(=O)OC(C)(C)C)C3)cc1 (stereo partly drawn) [Example 40, (2S)-2-(tert-butoxy)-2-[2-({1-[(tert-butoxy)carbonyl]pyrrolidin-2-yl}methyl)-4,7-dimethyl-6-(4-methylphenyl)-2,3-dihydro-1H-isoindol-5-yl]acetic acid]	3430 nM	–
Cc1ccc(-c2c(C)c3c(c(C)c2[C@H](OC(C)(C)C)C(=O)O)CN(Cc2cccnc2)C3)cc1 [Example 41, (2S)-2-(tert-butoxy)-2-[4,7-dimethyl-6-(4-methylphenyl)-2-(pyridin-3-ylmethyl)-2,3-dihydro-1H-isoindol-5-yl]acetic acid]	50 nM	–
CNC(=O)c1cccc(CN2Cc3c(C)c(-c4ccc(C)cc4)c([C@H](OC(C)(C)C)C(=O)O)c(C)c3C2)c1 [Example 43, (2S)-2-(tert-butoxy)-2-(4,7-dimethyl-2-{[3-(methylcarbamoyl)phenyl]methyl}-6-(4-methylphenyl)-2,3-dihydro-1H-isoindol-5-yl)acetic acid]	937 nM	–
